Literature values in US6124282A (priority 1998, dated 2000).

Assays:
[1] = system: extensive metabolizers (EMs); settings: inhibiting CYP2D6 (EMs converted into PMs); cited from earlier work
[2] = oral; urine; cited from earlier work
[3] = system: extensive metabolisers (EMs) and poor metabolisers (PMs); settings: PMs and EMs pretreated with quinidine; cited from earlier work

COc1ccc2c3c1O[C@H]1[C@@H](O)C=C[C@H]4[C@@H](C2)N(C)CC[C@@]341 [codeine]
codeine consumption [1]: significantly decreases codeine consumption | excreted unchanged [2]: About 4% | codeine analgesia [3]: impaired in PMs as well as in EMs
